{"source": "patent US20250049795A1", "about": "“USE OF 5-(2-((5-(4-(DIMETHYLAMINO)PIPERIDIN-1-YL)PYRIDIN-2-YL)AMINO)-5-FLUOROPYRIMIDIN-4-YL)-N,4-DIMETHYLTHIAZOL-2-AMINE IN COMBINATION THERAPIES FOR CANCER” (Aucentra Therapeutics Pty Ltd, priority 2022, published 2025)", "key": {"[1]": {"target": "T1, CDK4/cyclin D1 (Homo sapiens, UniProt P11802)", "T1 construct": "purchased Eurofins Pharma Discovery or Reaction Biology Corporation (radiometric service)", "T1 sequence (P11802 whole entry)": "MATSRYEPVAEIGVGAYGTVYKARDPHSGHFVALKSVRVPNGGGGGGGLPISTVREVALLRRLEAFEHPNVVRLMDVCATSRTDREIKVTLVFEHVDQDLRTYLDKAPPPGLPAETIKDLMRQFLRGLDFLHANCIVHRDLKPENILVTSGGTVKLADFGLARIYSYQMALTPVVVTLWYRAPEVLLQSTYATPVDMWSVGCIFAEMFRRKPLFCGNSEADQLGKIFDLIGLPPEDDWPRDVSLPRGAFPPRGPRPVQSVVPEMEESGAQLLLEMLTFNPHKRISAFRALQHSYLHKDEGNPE", "T1 sequence (P24385 whole entry partner)": "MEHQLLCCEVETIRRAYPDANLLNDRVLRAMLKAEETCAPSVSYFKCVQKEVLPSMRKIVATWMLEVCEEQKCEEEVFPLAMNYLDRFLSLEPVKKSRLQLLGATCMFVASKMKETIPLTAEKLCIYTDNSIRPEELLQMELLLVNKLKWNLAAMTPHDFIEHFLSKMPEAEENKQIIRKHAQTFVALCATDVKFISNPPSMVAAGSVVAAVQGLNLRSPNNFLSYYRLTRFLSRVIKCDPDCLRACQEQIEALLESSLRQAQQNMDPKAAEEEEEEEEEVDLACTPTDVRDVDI", "assay": "CDK inhibition, kinase assay (radiometric / ADP Glo)", "format": "biochemical", "procedure": "Serial dilutions of 1:3 were prepared for test compounds for 10 concentrations (from 10 μM to 0.5 nM). […] Positive and negative controls were performed in the presence and absence of CDK kinases, respectively. Half-maximal inhibition (IC50) values were calculated using a 4-parameter logistic non-linear regression model with Graphpad prism (Version 6.0). Apparent inhibition constants (Ki) values were calculated from Km (ATP) and IC50 values for the respective kinases."}, "[2]": {"test_system": "other members of CDK family", "assay": "Kinase profiling of CDK family", "format": "biochemical", "procedure": "Eurofins Pharma Discovery or Reaction Biology Corporation Kinase Profiler services were used to measure inhibition of CDKs and other kinases by radiometric assay (RIA). Inhibition of CDK4/cyclin D1, CDK6/cyclin D3 and CDK9/cyclin T1 were also determined using ADP Glo Kinase assays (Promega Corporation, Madison WI, United States of America). Briefly, the kinase reaction for CDK4/cyclin D1 and CDK6/cyclin D3 was performed with kinase reaction buffer ([…] Tris base pH 7.5, 20 mM MgCl2, 0.4 mM DTT), 0.1 mg/ml BSA and RB-CTF substrate (retinoblastoma protein1 C-terminal fraction). For CDK9/cyclin T1, the kinase reaction was performed with standard assay buffer and Kinase Dilution Buffer and RBER-IRStide substrate. Serial dilutions of 1:3 were prepared for test compounds for 10 concentrations (from 10 μM to 0.5 nM). The kinase reactions were started by addition of ATP, incubated for 40 min at […] and then stopped by adding 10 μL of ADP Glo reagent. […] Luminescence was measured using an EnVision Multilabel plate reader (PerkinElmer, Buckinghamshire, United Kingdom). […] Half-maximal inhibition (IC50) values were calculated using a 4-parameter logistic non-linear regression model with Graphpad prism (Version 6.0). Apparent inhibition constants (Ki) values were calculated from Km (ATP) and IC50 values for the respective kinases."}, "[3]": {"test_system": "T cell populations (CD3+, CD8+)", "assay": "Flow cytometry study of immune profiles in CT26.WT syngeneic mouse model", "format": "in vivo", "details": "day 14 of dosing, 3 mice of each group", "source_text": "FIG. 2 provides further graphical results showing the in vivo anti-tumour efficacy of compound 1 in the CT26.WT syngeneic mouse model through activation of immunity. In the experiment, on day 14 of dosing, 3 mice of each group were sacrificed for flow cytometry study of immune profiles.\n(§1) CT26.WT colorectal cancer cells were harvested and re-suspended in a 1:1 mixture of Matrigel™ (#354234; Corning Life Sciences, Corning, NY, United States of America) and serum-free RPMI-1640 medium, and thereafter injected sub-cutaneously (sc) (7×10^5 cells in a volume of 100 μL) into the right flank of each female BALB/c mouse. After the tumour volume reached ˜100 mm^3, the mice were randomised into […] (n=8/group) and given vehicle (1% CMC in water), compound 1 (150 mg/kg) once daily by oral administration (QD PO), Anti-PD1 (RMP1-14-derived mouse monoclonal antibody, Assay Matrix, Australia; […]) by intraperitoneal (ip) administration, or compound 1 plus anti-PD-1 antibody (FIG. 1). Compound 1 achieved significant tumour growth inhibition with a T/C=24% when used alone, and T/C=14% when used in the combination with the anti-PD-1 antibody, as measured on day 14 of dosing (FIG. 1)."}, "[4]": {"test_system": "CT26.WT colorectal cancer cells", "assay": "In vivo anti-tumour activity in mice with a colorectal cancer syngeneic allograft", "set-up": "species or system mouse", "procedure": "Murine triple-negative breast cancer EMT6 tumour cells (ATCC® CRL-2755™) and colorectal cancer CT26.WT cells (ATCC® CRL-2638™) were cultured and expanded in RPMI-1640 medium (Roswell Park Memorial Institute Medium-1640) with L-glutamine and sodium bicarbonate (Sigma-Aldrich, Macquarie Park, NSW, Australia) supplemented with 10% heat-inactivated foetal bovine serum (FBS). Cells were cultured in an incubator at 5% CO2 37° C.\nas §1, with “1).” for “1). Compound 1 achieved significant tumour growth inhibition with a T/C=24% when used alone, and T/C=14% when used in the combination with the anti-PD-1 antibody, as measured on day 14 of dosing (FIG. 1).”"}}, "note": "Entries after “also recorded” stand apart in the source; their conditions may differ.", "data": [{"smiles": "CNc1nc(C)c(-c2nc(Nc3ccc(N4CCC(N(C)C)CC4)cn3)ncc2F)s1", "note": "[Compound 1, 5-(2-((5-(4-(dimethylamino)piperidin-1-yl)pyridin-2-yl)amino)-5-fluoropyrimidin-4-yl)-N,4-dimethylthiazol-2-amine]", "values": [{"measurement": "selectivity for CDK4 over CDK6", "setting": "[1]", "value": 140, "unit": "fold"}, {"measurement": "activity against other members of CDK family", "setting": "[2]", "value": "no activity"}, {"measurement": "T cell populations (% CD3+ and % CD8+) in spleen, blood and tumour samples", "setting": "[3]", "value": "increased T cell populations; also recorded: increased level"}, {"measurement": "extended survival of animals", "setting": "[4]; BALB/c mice, CT26.WT allograft, compound 1 150 mg/kg QD PO, anti-PD1 ip, p<0.001", "value": 60, "unit": "%"}, {"measurement": "survival of the mice (in words)", "setting": "[4]; BALB/c mice, CT26.WT allograft, p<0.001", "value": "significantly prolong the survival"}, {"measurement": "tumor volume in treatment vs control ratio (T/C)", "setting": "[4]; female BALB/c mice, sc CT26.WT allograft, day 14 of dosing, compound 1 150 mg/kg QD PO, Anti-PD1 150 g/mouse/wk ip", "value": 24, "unit": "%"}]}]}
